The structures appear in SMILES notation.

For the compound `CC(CCCC(C)(C)C)C1CCC2C3C(=O)C=C4CC(O)CCC4(C)C3CCC12C` (centres undefined), the melting point (as a rule, the temperature of the solid-liquid transition) lay in the range of 176 to 178 °C.

Regarding `COCCc1nc2ccccn2c(=O)c1-c1ccc(Cl)cc1`, the melting point lay in the range of 116 to 118 °C.

For `[N-]=[N+]=NS(=O)(=O)c1cc(C(=O)O)cc(S(=O)(=O)N=[N+]=[N-])c1`, the melting point is 181 to 183 °C. In the case of `COc1c(C(=O)O)csc1S(=O)(=O)Oc1ccc(-c2c3ccccc3c(Br)c3sc(C)c(C)c23)cc1C1CCCC1` it was above 225 °C; in that of `C=CCc1c(O)c(Cl)cc(F)c1N1C(=O)C2=C(CCCC2)C1=O`, 109 to 111 °C. In the case of `C=C1CN(c2c(F)cc3c(=O)c(C(=O)O)cn(C4CC4)c3c2F)CC1NC` (centres undefined) it was 239 to 243 °C; in that of `CC(C)c1nc(C(C)C)c(CC=Cc2ccccc2)c(-c2ccc(F)cc2)c1CO`, 72 to 73 °C; in that of `CCOC(=O)c1c(C)cc2c(=O)n(-c3ccccc3Cl)cnc2c1C`, 151 to 152 °C.

In turn, `CN=CN(C)c1nc(-c2cc(Cl)nc(Cl)c2)cs1` registered a melting point of 145 °C. In the case of `O=C(NN1CCCCC1)c1cn(-c2ccc(Br)cc2)c(-c2ccc(Cl)cc2Cl)n1` it was 219 to 221 °C.

The compound `CS(=O)(=O)c1ccc(-c2cnn(CC(F)(F)F)c(=O)c2-c2ccc(F)cc2)cc1` came in with a melting point of 177 to 179 °C. In the case of `Nc1ccc(C(=O)OC2CCN(Cc3ccccc3)CC2)cn1` it was 135 to 136 °C; in that of `Brc1cncc(N2C=CCC2)c1`, 98 to 99 °C. In the case of `Cc1cc(C)c2c(c1)c(-c1ccccc1Cl)c(C(=O)O)c(=O)n2C` it was 162 to 163 °C; in that of `N#Cc1nn(-c2c(Cl)cc(C(F)(F)F)cc2Cl)c(N)c1OC(F)F`, 152 to 154 °C; in that of `COc1ccc(C2CC(n3ccnc3)c3ccccc3N2)cc1` (centres undefined), 156 to 158 °C.

As to `CCOc1cc(C(=O)OC)on1`, the melting point lay in the range of 77 to 79 °C.

As for `Cc1nnc2cc(C(=O)O)cc(Cl)n12`, the melting point was in the range of 259 to 260 °C. In the case of `C=Cc1ccc(OC(C)C)c(OCCN2C(=O)c3ccccc3C2=O)c1` it was 78 °C. In the case of `Cc1cc(Br)ccc1C(=O)NCc1ccccn1` it was 86 to 87.5 °C; in that of `O=C(Cn1c(-c2ccc(Cl)cc2)nc2cccnc21)N1CCCCC1`, 176 to 178 °C; in that of `CCOC(=O)C(NC(C)=O)C(=O)c1ccccc1` (centres undefined), 63 to 64 °C.

Turning to `FC(F)(F)c1cc(Br)c(C(F)(F)F)cc1Br`, the melting point lay within 64 to 65 °C. In the case of `N#CC=C1CCN(c2ccc(N3C[C@@H](Cn4cc(C#N)nn4)OC3=O)cc2F)CC1` it was 78 to 80 °C. In the case of `CN1CCN(CCCNc2ncc3cc(-c4c(Cl)cccc4Cl)c(=O)n(C)c3n2)CC1` it was 170 to 172 °C; in that of `CC1Oc2c(C#N)cc(F)cc2C=C1n1nc(C(F)(F)F)n(C)c1=S` (centres undefined), 144 °C; in that of `CC(=O)NCC=Cc1ccc2ncnc(Nc3ccc(Oc4ccc(C)nc4)c(Cl)c3)c2c1`, 254 to 256 °C. Turning to `Clc1cc(N2CCCCCC2)nc(-c2ccccc2)n1`, the melting point lay in the range of 64 to 66 °C.

`COc1ccc(C(=O)c2ccsc2)cc1` had a melting point of 58 to 61 °C.

`COc1ncnc(Cl)c1[N+](=O)[O-]` showed a melting point of 65 °C. Compound `CC(C)Cn1c(C(C)O)nc2cnc3ccccc3c21` (centres undefined) showed a melting point of 152 to 166 °C. In the case of `COC(=O)CCC1CCC(=O)N1` (centres undefined) it was 52 to 53 °C. In the case of `CCCc1nn(-c2ccc(C(F)(F)F)cn2)cc1CCCOc1c(CC(=O)O)cnn1CC` it was 125 to 126 °C; in that of `CCOC(=O)C(=O)c1ccc(-c2ccc(-c3ccccc3)cc2)o1`, 91 to 94 °C; in that of `Cc1ccc(S(=O)(=O)N(C)c2ccc(Cl)cc2Cl)cc1`, 86 to 87 °C. In turn, `Cc1cccc2sc(COc3ccc(F)c(C(N)=O)c3F)nc12` displayed a melting point of 201 to 202 °C. For the compound `CCNc1nc2c(N)nc3ccccc3c2n1CC(C)(C)O`, the melting point fell in the range of 233 to 235 °C.

Take `CC(C)(C)C(=O)CN1CCNC1=N[N+](=O)[O-]`: the melting point fell in the range of 158 to 159 °C. In the case of `Nc1c(Cl)ncnc1NCc1ccccn1` it was 140 °C.

In turn, `CC1(C)CCSc2c(CC#Cc3ccc(C=O)cc3)cccc21` displayed a melting point of 55 to 63 °C. As to `COC(c1cc(C)c(OCC(=O)O)c(C)c1)(C(F)(F)F)C(F)(F)F`, the melting point lay within 105 to 108 °C. In the case of `CC(C)COc1c(-c2ccc(S(C)(=O)=O)c(F)c2)cnn(-c2cccc(Cl)c2)c1=O` it was 180 to 183 °C. In the case of `Cc1c(C(=O)Nc2ccc(N3CCC(N4CCOCC4)CC3)c(C#N)c2)cnn1-c1cccc(C(F)(F)F)c1` it was 215 to 216 °C; in that of `CCn1c(=O)c2[nH]c(/C=C/c3ccc(C)cc3)nc2n(CC)c1=O`, above 280 °C. In the case of `CN(C)C(=O)c1nc(-c2cccnc2)nc2c1c1ccc(Cl)cc1n2C` it was 283 to 284 °C; in that of `CN1CCN(c2cccc3ccc(C(=O)NCc4ccc(Cl)cc4)cc23)CC1`, 72 to 74 °C; in that of `CC(C)c1nc(CC#N)n(C)c1Sc1cc(Cl)cc(Cl)c1`, 103 to 105 °C. As to `Cc1cc(-c2nc3cc(F)cc(N4CCCC4)c3c(=O)[nH]2)cc(C)c1OCCN1CCCC1`, the melting point was determined as 207 °C. `CCN1C(=O)C(=C(C)O)SC1=S` gave a melting point of 93 °C. In the case of `CCOC(=O)c1cnc2cc(OC)c(OC)cc2c1` it was above 300 °C.

Turning to `CCOC(=O)c1c(C)cc2c(c1C)c(=O)n(-c1ccccc1Cl)c(=O)n2CC(=O)N(CC)CC`, the melting point lay in the range of 228 to 229 °C. In the case of `CCC[C@H]1CC[C@H](c2ccc(OCC)c(C#N)c2)CC1` it was 32 °C. In the case of `CCOC(=O)c1cnc2c(F)c(F)c(F)cc2c1Cl` it was 110 to 112 °C; in that of `CCCCN(CCCC)S(=O)(=O)N[C@@H](Cc1ccc(NC(=O)c2c(Cl)cncc2Cl)cc1)C(=O)O`, 167 °C; in that of `CC(C)(C)C1OCC(S)(CCO)CO1` (centres undefined), 68 °C. With `CC1(C)C2CCC1(CCBr)CC2`, the melting point is 68 to 71 °C.

In turn, `COCCN(CCOC)CCc1ccc(Nc2ncc3c(n2)-c2ccccc2C(c2cccc(Br)c2)C3)cc1` (centres undefined) registered a melting point of 58 to 60 °C. In the case of `CC(C)(C)OC(=O)Nc1cc(N2CCC3(CC2)OCCO3)c(-c2ccccc2F)cc1[N+](=O)[O-]` it was 164 °C; in that of `COc1cc(C(=O)NC2CCN(CC(F)(F)F)CC2)ccc1Nc1ncc2c(n1)N(C1CCCCC1)CC(F)(F)C(=O)N2C`, 213 to 215 °C; in that of `O=C(c1sc(Nc2ccccc2)c2c1CCc1cnoc1-2)N1CCOCC1`, 177 to 178 °C. In the case of `O=C(c1ccccc1)c1cccc(NC(=O)c2ccn3c2CSC3c2cccnc2)c1` (single isomer, unassigned; (+)) it was 109 °C; in that of `CC(C)Oc1cc(-n2c(=O)[nH]c(C(F)(F)F)c(F)c2=O)c(F)cc1Cl`, 133 to 135 °C; in that of `CCn1cc(C(=O)O)c(=O)cc1-c1ccc2c(c1)OCO2`, 269 to 270 °C. `COc1ccc(-c2c(C3CCN(C)CC3)[nH]c(=O)c3ccccc23)cc1`: the melting point fell in the range of 209 to 211 °C.

For the origin of these results see a melting point compilation (Tetko et al.; mined from patent text by program, amines drawn as free bases though some values may be those of a salt).
